Here are results for four compounds from publication PMC7946228, “Discovery of novel candidates for anti-liposarcoma therapies by medium-scale high-throughput drug screening” (PLoS ONE, 2021).

As usually defined, the IC50 is the midpoint of a concentration-inhibition curve.

Data set [1] deals with liposarcoma cell lines. As to the kind of experiment: IncuCyte cell proliferation assay (growth reducing/arresting concentration). Format: cell-based, human. Conditions: complete growth arrest between 96 and 120h. The protocol: The cellular proliferation rate was measured using the IncuCyte ZOOM live-cell imaging system (Essen Bioscience, Birmingham, UK) with the corresponding software application (version 2013BRev1). First the growth rate for each cell line was established to estimate the seeding numbers of cells corresponding to 15-30% of confluence at the start of the experiment and maximum 70% after 72h. The drug treatment was initiated approximately 18h after seeding. The proliferation rate was measured as cell confluence over time through the acquisition of photographs under phase contrast every third hour for the entire duration of the drug treatment. During the drug treatment, media were not changed, and cells were not split. The growth reducing drug concentration was defined as lowest drug concentration leading to significant decrease of cellular growth between 40 and 72h after start of treatment. To determine that concentration, plots were generated using IncuCyte software and differences in growth between 40 and 72h were calculated using least-square means with the '[…] package version 1.4.3 [25]. Growth arresting concentrations were defined as minimal drug concentration under which cell confluence between 96 and 120h increases by less than 3%. Though growth arrest occurred much earlier, these time points ensured that the growth arrest is a stable phenomenon. These growth arresting concentrations were used for drug withdrawal, apoptosis and cell cycle experiments. All the data were verified with the plots. The presented values correspond to median values from two ([…], all compounds) to five (all cell lines, triptolide) biological replicates.

Data set [2] concerns normal cells (blood, bone marrow from healthy donors, iMSC#3). As to the kind of experiment: Toxicity towards normal cells ex vivo, ATP viability 72h. Format: cell-based, human. Conditions: 1 nM to 10 μM. As for the experimental part:
349 compounds from anti-cancer Selleck Chemical library were pre-aliquoted at five concentrations, increasing in 10-fold steps from 1 nM to 10 μM, in 384-well plates using an Echo Liquid Handler. Each plate also contained positive (benzethonium chloride, BzCl) and negative (DMSO only) controls. Additional drugs were added manually to the same plates at the same concentration range. Cells were seeded directly into the plates containing the drugs. After 72h viability was assessed through levels of ATP, with Cell Titer Glow assay (Promega, Wisconsin, United States) and luminescence quantified using a […]. Data from drug screens were analyzed with R version 3.4.0 (R_Core_Team, 2017) normalized to median positive (BzCl) and median negative (DMSO) controls using formula: (drug-BzCl)/(DMSO–BzCl), with total viability calculated as the area under the curve over all five drug concentrations, adjusted using qualitatively constrained quantile smoothing splines, R package ‘cobs’ version 1.3–3 [22]. […] For two cases where the z’-factor was below 0.5, strictly standardized mean difference (SSMD) was additionally calculated, giving the population value (β) of SSMD -4 and -5, respectively, indicating good quality. […]

Data set [3] relates to advanced solid malignancies or lymphoma. As to conditions: cited from earlier work.
In data set [4] the test system is all cancer cell lines (NCI-60). On the set-up: method as in NCI-60 project. Conditions: ref NCI-60 project; cited from earlier work.

For `O=C(/C=C/c1cccnc1)NCCCCC1CCN(C(=O)c2ccccc2)CC1` [APO866], in data set [1], the “concentration arresting the majority of the cell lines” value is 10 nM.

For the compound `Cn1cc(CNCC2CCN(c3ncc(C(=O)NO)cn3)CC2)c2ccccc21` [JNJ-26481585], the “toxicity towards normal cells compared with liposarcoma cell lines” value in data set [2] is on record as “more toxic to bone marrow cells in vitro than to liposarcoma cell lines”. Further, the “patients with partial response or stable disease” value in data set [3] (heavily pretreated patients with solid tumors) is listed as 10%.

Consider `CC(C)[C@]12O[C@H]1[C@@H]1O[C@]13[C@]1(O[C@H]1C[C@H]1C4=C(CC[C@@]13C)C(=O)OC4)[C@@H]2O` [Triptolide], for which, in data set [2], the “toxicity towards normal cells compared with liposarcoma cell lines” value was “more toxic to bone marrow cells in vitro than to liposarcoma cell lines”. Also, in data set [1], the “concentration arresting the majority of the cell lines” value is 10 nM. Besides, in data set [4], the IC50 was 12 nM.

For the compound `COCCn1c2c([n+](Cc3cnccn3)c1C)C(=O)c1ccccc1C2=O` [YM155], the “patients with complete or partial responses” value in data set [3] (phase I, advanced solid malignancies or lymphoma) is given as 14%.
